{"source": "patent US20100190794A1", "about": "“Herbicidally Active Composition” (BASF SE, priority 2007, published 2010)", "experiment_in_all_cases": "greenhouse test, pre-emergence treatment", "key": {"ALOMY": {"test_system": "ALOMY", "format": "in vivo, Alopecurus myosuroides", "from_the_text": "(§1) The culture containers used were plastic pots containing loamy sand with approximately 3.0% of humus as substrate. The seeds of the test plants were sown separately for each species.\n(§2) For the pre-emergence treatment, the active compounds, suspended or emulsified in water, were applied directly after sowing by means of finely distributing nozzles. The containers were irrigated gently to promote germination and growth and subsequently covered with transparent plastic hoods until the plants had rooted. This cover caused uniform germination of the test plants unless this was adversely affected by the active compounds.\n(§3) Depending on the species, the plants were kept at 10-25° C. and 20-35° C., respectively. The test period extended over 2 to 4 weeks. During this time, the plants were tended and their response to the individual treatments was evaluated.\n(§4) Evaluation was carried out using a scale from 0 to 100. 100 means no emergence of the plants, or complete destruction of at least the above-ground parts, and 0 means no damage or normal course of growth. Good herbicidal activity is given at values of at least 70, and very good herbicidal activity is given at values of at least 85.\n(§5) The respective stated components A and B, and if appropriate, C were formulated as a 5% by weight or 10% by weight strength emulsion concentrate or a commercially available formulation of component B was used and, with addition of the amount of solvent system, introduced into the spray liquor used for applying the active compound. In the examples, the solvent used was water.\n(§6) The test period extended over 20 or 21 days. During this time, the plants were tended, and their reactions to the treatment with active compound was monitored.\n(§7) What was evaluated was the damage by the chemical compositions using a scale of from 0 to 100%, in comparison to the untreated control plants. 0 means no damage, and 100 means complete destruction of the plants.\n(§8) In the examples below, using the method of S. R. Colby (1967) “Calculating synergistic and antagonistic responses of herbicide combinations”, Weeds 15, p. 22 ff., the value E, which is expected if the activity of the individual active compounds is only additive, was calculated.\n(§9) where X=percent activity using active compound A at an application rate a; Y=percent activity using active compound B at an application rate b; E=expected activity (in %) by A+B at application rates a+b.\n(§10) If the value found in experiments is higher than the value E calculated according to Colby, a synergistic effect is present."}, "POAAN": {"test_system": "POAAN", "format": "in vivo, Poa annua", "from_the_text": "as §1, §2, §3, §4, §5, §6, §7, §8, §9, §10"}, "CCHEC": {"test_system": "CCHEC", "format": "in vivo, Cenchrus echinatus", "details": "for Herbicidal action in % after 21 days against CCHEC: Use Example 3; for Herbicidal action in % after 20 days against CCHEC: Use Example 16", "from_the_text": "as §1, §2, §3, §4, §5, §6, §7, §8, §9, §10"}, "PANDI": {"test_system": "PANDI", "format": "in vivo, Panicum dichotomiflorum", "details": "Use Example 3", "from_the_text": "as §1, §2, §3\nas §4, with “85. […]” for “85.”\nas §6\nWhat was evaluated was the damage by the chemical compositions using a scale of from 0 to 100%, in comparison to the untreated control plants. […]\nIn the examples below, using the method of S. R. Colby (1967) “Calculating synergistic and antagonistic responses of herbicide combinations”, Weeds 15, p. 22 ff., the value E, which is expected if the activity of the individual active compounds is only additive, was calculated. […]\nas §10"}, "SETLU": {"test_system": "SETLU", "format": "in vivo, Setaria glauca", "details": "Use Example 16", "from_the_text": "as §1, §2, §3, §4, §5, §6, §7, §8, §9, §10"}, "BRAPL": {"test_system": "BRAPL", "format": "in vivo, Brachiaria plantaginea", "from_the_text": "as §1, §2, §3, §4, §5, §6, §7, §8, §9, §10"}, "LAMPU": {"test_system": "LAMPU", "format": "in vivo, Lamium purpureum", "details": "25 g/ha a.s., Use Example 20", "from_the_text": "as §1, §2, §3, §4, §5, §6, §7, §8, §9, §10"}, "APESV": {"test_system": "APESV", "format": "in vivo, Apera spica-venti", "details": "25 g/ha a.s., Use Example 20", "from_the_text": "as §1, §2, §3, §4, §5, §6, §7, §8, §9, §10"}, "PHACA": {"test_system": "PHACA", "format": "in vivo, Phalaris canariensis", "from_the_text": "as §1, §2, §3, §4, §5, §6, §7, §8, §9, §10"}, "LOLMU": {"test_system": "LOLMU", "format": "in vivo, Lolium multiflorum", "details": "Use Example 1", "from_the_text": "as §1, §2, §3, §4, §5, §6, §7, §8, §9, §10"}, "DIGSA": {"test_system": "DIGSA", "format": "in vivo, Digitaria sanguinalis", "details": "250 g/ha a.s., Use Example 5", "from_the_text": "as §1, §2, §3, §4, §5, §6, §7, §8, §9, §10"}}, "data": [{"smiles": "CCC(C)(CC)c1cc(NC(=O)c2c(OC)cccc2OC)on1", "note": "[Isoxaben, reference compound]", "values": [{"measurement": "Herbicidal action in % after 20 days against ALOMY", "setting": "ALOMY; 25 g/ha a.s., Use Example 15", "result": 0, "unit": "%"}, {"measurement": "Herbicidal action in % after 20 days against ALOMY", "setting": "ALOMY; 50 g/ha a.s., Use Example 15", "result": 0, "unit": "%"}, {"measurement": "Herbicidal action in % after 20 days against POAAN", "setting": "POAAN; 25 g/ha a.s., Use Example 15", "result": 0, "unit": "%"}, {"measurement": "Herbicidal action in % after 20 days against POAAN", "setting": "POAAN; 50 g/ha a.s., Use Example 15", "result": 0, "unit": "%"}]}, {"smiles": "CCc1cnc(C2=NC(C)(C(C)C)C(=O)N2)c(C(=O)O)c1", "note": "(stereo not shown) [Imazethapyr]", "values": [{"measurement": "Herbicidal action in % after 21 days against CCHEC", "setting": "CCHEC; 17.5 g/ha a.s.", "result": 50, "unit": "%"}, {"measurement": "Herbicidal action in % after 21 days against CCHEC", "setting": "CCHEC; 35 g/ha a.s.", "result": 60, "unit": "%"}, {"measurement": "Herbicidal action in % after 21 days against PANDI", "setting": "PANDI; 17.5 g/ha a.s.", "result": 95, "unit": "%"}, {"measurement": "Herbicidal action in % after 21 days against PANDI", "setting": "PANDI; 35 g/ha a.s.", "result": 95, "unit": "%"}]}, {"smiles": "O=C(O)c1c(Cl)ccc2cc(Cl)cnc12", "note": "[Quinclorac]", "values": [{"measurement": "Herbicidal action in % after 20 days against CCHEC", "setting": "CCHEC; 62.5 g/ha a.s.", "result": 0, "unit": "%"}, {"measurement": "Herbicidal action in % after 20 days against CCHEC", "setting": "CCHEC; 125 g/ha a.s.", "result": 20, "unit": "%"}, {"measurement": "Herbicidal action in % after 20 days against SETLU", "setting": "SETLU; 62.5 g/ha a.s.", "result": 50, "unit": "%"}, {"measurement": "Herbicidal action in % after 20 days against SETLU", "setting": "SETLU; 125 g/ha a.s.", "result": 85, "unit": "%"}, {"measurement": "Herbicidal action in % after 20 days against BRAPL", "setting": "BRAPL; 62.5 g/ha a.s., Use Example 16", "result": 0, "unit": "%"}, {"measurement": "Herbicidal action in % after 20 days against BRAPL", "setting": "BRAPL; 125 g/ha a.s., Use Example 16", "result": 25, "unit": "%"}]}, {"smiles": "O=C(Nc1ccc(F)cc1)c1cccc(Oc2cccc(C(F)(F)F)c2)n1", "note": "[Picolinafen, reference compound]", "values": [{"measurement": "Herbicidal action in % after 20 days against LAMPU", "setting": "LAMPU", "result": 0, "unit": "%"}, {"measurement": "Herbicidal action in % after 20 days against ALOMY", "setting": "ALOMY; 25 g/ha a.s., Use Example 7", "result": 0, "unit": "%"}, {"measurement": "Herbicidal action in % after 20 days against POAAN", "setting": "POAAN; 25 g/ha a.s., Use Example 7", "result": 0, "unit": "%"}, {"measurement": "Herbicidal action in % after 20 days against APESV", "setting": "APESV", "result": 60, "unit": "%"}, {"measurement": "Herbicidal action in % after 20 days against PHACA", "setting": "PHACA; 25 g/ha a.s., Use Example 20", "result": 0, "unit": "%"}]}, {"smiles": "CC(C)N(C(=O)SCC(Cl)=C(Cl)Cl)C(C)C", "note": "[Triallate, reference compound]", "values": [{"measurement": "Herbicidal action in % after 20 days against LOLMU", "setting": "LOLMU; 300 g/ha a.s.", "result": 60, "unit": "%"}, {"measurement": "Herbicidal action in % after 20 days against LOLMU", "setting": "LOLMU; 600 g/ha a.s.", "result": 80, "unit": "%"}, {"measurement": "Herbicidal action in % after 20 days against PHACA", "setting": "PHACA; 300 g/ha a.s., Use Example 1", "result": 40, "unit": "%"}, {"measurement": "Herbicidal action in % after 20 days against PHACA", "setting": "PHACA; 600 g/ha a.s., Use Example 1", "result": 50, "unit": "%"}]}, {"smiles": "CCNc1nc(Cl)nc(NC(C)(C)C)n1", "note": "[Terbuthylazine, reference compound]", "values": [{"measurement": "Herbicidal action in % after 20 days against DIGSA", "setting": "DIGSA", "result": 35, "unit": "%"}, {"measurement": "Herbicidal action in % after 20 days against BRAPL", "setting": "BRAPL; 250 g/ha a.s., Use Example 5", "result": 15, "unit": "%"}]}]}
